Experimental data published in PMC12566593, “Effects of Different Centrifugation Parameters on Equilibrium Solubility Measurements” (Methods and Protocols, 2025).
Counter-ions that a name gives are not always drawn. Like-named read-outs stand apart in the source and are kept apart here.

Experiments:
[1] = Equilibrium solubility, saturation shake-flask, centrifugation as phase separation; conditions: for solubility thermodynamic / solubility thermodynamic at 24 h: Britton-Robinson buffer; for solubility thermodynamic: sedimented before centrifugation; for solubility thermodynamic at 24 h: continuously stirred, no sedimentation; for Centrifugation: Result Range: % of reference, all centrifugation protocols
Protocol: To determine equilibrium solubility, the samples were added to Britton-Robinson buffer solutions (BRB) adjusted to specific pH values, obtaining a heterogenous system (Table S2). BR buffers were used in the experiments across a pH range of 2.0 to 11.0, prepared by combining 0.04 M acetic acid, 0.04 M phosphoric acid, and 0.04 M boric acid. The mixture was then titrated with varying amounts of 0.2 M NaOH to achieve the desired pH values. The ionic strength was kept constant (I = 0.15) across all pH values using appropriate amounts of inert KCl. […] The exception was progesterone, a neutral molecule, for which only a single pH condition was necessary. […] This strategy enabled a more comprehensive assessment of how centrifugation parameters influence solubility. Different amounts of 0.2 M NaOH were used to adjust the pH of the buffer to the desired values, between pH 2.0 and 11.0.
(§1) Samples were stirred using the μDISS Profiler™ (Pion Inc., Billerica, MA, USA) at 150 rpm [33], the pH was checked after 1 h and adjusted, if necessary, with either 0.1 M HCl or 0.1 M NaOH. To confirm the reliability of the results, the pH was measured again at the end of each experiment. Prior to centrifugation, two different approaches were applied: stirring samples for 6 h, followed by 18 h of sedimentation, according to the standardized protocol [18], or continuously stirring samples for 24 h, without a subsequent sedimentation step.
From each sample, aliquots of 10 mL were transferred into centrifugation tubes and centrifuged using a Sartorius 2–16P type centrifuge.
(§2) After centrifugation, the concentration was measured by the μDISS Profiler™ (Pion Inc., Billerica, MA, USA) equipped with UV probes. The aliquots were diluted with the buffer solution if necessary. The 2nd derivative method was utilized in the AuPRO™ 7.1 software (Pion Inc., Billerica, MA, USA) to determine the concentration of the samples after a calibration was conducted for each substance. Calibration was performed by adding small volumes of methanolic stock solutions with known concentrations to buffer solutions of defined pH. Separate calibration curves were prepared for each UV probe.
At least three parallel measurements were carried out for each compound with each combination of variables (Table S1). Equilibrium solubility measurements using centrifugation were compared to those obtained by using only sedimentation.

[2] = Ionization state calculated from pKa and buffer pH; type: physicochemical; conditions: pH 6.4
Description: Depending on the pH, the molecule exists as the neutral acid (H2A), monoanion (HA^−), or dianion (A^2−). […] These values were derived from the mole fraction (x) of the various species, based on the compound’s known pKa values and the corresponding buffer pH (Equations (3)–(6)).

[3] = Equilibrium solubility, saturation shake-flask, sedimentation as phase separation (reference, standard protocol); conditions: for solubility: Britton-Robinson buffer
Description: BR buffers were used in the experiments across a pH range of 2.0 to 11.0, prepared by combining 0.04 M acetic acid, 0.04 M phosphoric acid, and 0.04 M boric acid. The mixture was then titrated with varying amounts of 0.2 M NaOH to achieve the desired pH values. The ionic strength was kept constant (I = 0.15) across all pH values using appropriate amounts of inert KCl. […] Different amounts of 0.2 M NaOH were used to adjust the pH of the buffer to the desired values, between pH 2.0 and 11.0.
as §1, §2
At least three parallel measurements were carried out for each compound with each combination of variables (Table S1).

[4] = cited from earlier work; for Filtration: Result Range: % of reference, all filters

COc1ccc(Cc2nccc3cc(OC)c(OC)cc23)cc1OC [PAP-HCL, papaverine hydrochloride]
Solubility higher than the reference ([1]; 10,000 rpm for 20 min without prior sedimentation): 60–70% | solubility thermodynamic ([1]; 25 °C, pH 3, aqueous buffer, thermodynamic from solid, Equilibrium solubility S sed, pH 3.0, 5000 rpm, 5 min): 37200 µg/mL | solubility thermodynamic ([1]; 25 °C, pH 3, aqueous buffer, thermodynamic from solid, Equilibrium solubility S sed, pH 3.0, 5000 rpm, 10 min): 38000 µg/mL | solubility thermodynamic ([1]; 25 °C, pH 3, aqueous buffer, thermodynamic from solid, Equilibrium solubility S sed, pH 3.0, 5000 rpm, 20 min): 37100 µg/mL | solubility thermodynamic ([1]; 25 °C, pH 3, aqueous buffer, thermodynamic from solid, Equilibrium solubility S sed, pH 3.0, 10,000 rpm, 5 min): 39500 µg/mL | solubility thermodynamic ([1]; 25 °C, pH 3, aqueous buffer, thermodynamic from solid, Equilibrium solubility S sed, pH 3.0, 10,000 rpm, 10 min): 40900 µg/mL | solubility thermodynamic ([1]; 25 °C, pH 3, aqueous buffer, thermodynamic from solid, Equilibrium solubility S sed, pH 3.0, 10,000 rpm, 20 min): 39500 µg/mL | solubility thermodynamic at 24 h ([1]; 25 °C, pH 3, aqueous buffer, thermodynamic from solid, Equilibrium solubility S stir, pH 3.0, 5000 rpm, 5 min): 36800 µg/mL | solubility thermodynamic at 24 h ([1]; 25 °C, pH 3, aqueous buffer, thermodynamic from solid, Equilibrium solubility S stir, pH 3.0, 5000 rpm, 10 min): 41100 µg/mL | solubility thermodynamic at 24 h ([1]; 25 °C, pH 3, aqueous buffer, thermodynamic from solid, Equilibrium solubility S stir, pH 3.0, 5000 rpm, 20 min): 38400 µg/mL | solubility thermodynamic at 24 h ([1]; 25 °C, pH 3, aqueous buffer, thermodynamic from solid, Equilibrium solubility S stir, pH 3.0, 10,000 rpm, 5 min): 39100 µg/mL | solubility thermodynamic at 24 h ([1]; 25 °C, pH 3, aqueous buffer, thermodynamic from solid, Equilibrium solubility S stir, pH 3.0, 10,000 rpm, 10 min): 40400 µg/mL | solubility thermodynamic at 24 h ([1]; 25 °C, pH 3, aqueous buffer, thermodynamic from solid, Equilibrium solubility S stir, pH 3.0, 10,000 rpm, 20 min): 39300 µg/mL | solubility thermodynamic ([1]; 25 °C, pH 6.4, aqueous buffer, thermodynamic from solid, Equilibrium solubility S sed, pH 6.4, 5000 rpm, 5 min): 24.4 ± 0.48 µg/mL | solubility thermodynamic ([1]; 25 °C, pH 6.4, aqueous buffer, thermodynamic from solid, Equilibrium solubility S sed, pH 6.4, 5000 rpm, 10 min): 28.2 ± 0.78 µg/mL | solubility thermodynamic ([1]; 25 °C, pH 6.4, aqueous buffer, thermodynamic from solid, Equilibrium solubility S sed, pH 6.4, 5000 rpm, 20 min): 28.2 ± 0.73 µg/mL | solubility thermodynamic ([1]; 25 °C, pH 6.4, aqueous buffer, thermodynamic from solid, Equilibrium solubility S sed, pH 6.4, 10,000 rpm, 5 min): 24.4 ± 1.17 µg/mL | solubility thermodynamic ([1]; 25 °C, pH 6.4, aqueous buffer, thermodynamic from solid, Equilibrium solubility S sed, pH 6.4, 10,000 rpm, 10 min): 32.8 ± 0.81 µg/mL | solubility thermodynamic ([1]; 25 °C, pH 6.4, aqueous buffer, thermodynamic from solid, Equilibrium solubility S sed, pH 6.4, 10,000 rpm, 20 min): 31.2 ± 1.08 µg/mL | solubility thermodynamic at 24 h ([1]; 25 °C, pH 6.4, aqueous buffer, thermodynamic from solid, Equilibrium solubility S stir, pH 6.4, 5000 rpm, 5 min): 33 ± 2.11 µg/mL | solubility thermodynamic at 24 h ([1]; 25 °C, pH 6.4, aqueous buffer, thermodynamic from solid, Equilibrium solubility S stir, pH 6.4, 5000 rpm, 10 min): 32.3 ± 1.54 µg/mL | solubility thermodynamic at 24 h ([1]; 25 °C, pH 6.4, aqueous buffer, thermodynamic from solid, Equilibrium solubility S stir, pH 6.4, 5000 rpm, 20 min): 32.9 ± 1.26 µg/mL | solubility thermodynamic at 24 h ([1]; 25 °C, pH 6.4, aqueous buffer, thermodynamic from solid, Equilibrium solubility S stir, pH 6.4, 10,000 rpm, 5 min): 28.6 ± 1.55 µg/mL | solubility thermodynamic at 24 h ([1]; 25 °C, pH 6.4, aqueous buffer, thermodynamic from solid, Equilibrium solubility S stir, pH 6.4, 10,000 rpm, 10 min): 37.8 ± 2.07 µg/mL | solubility thermodynamic at 24 h ([1]; 25 °C, pH 6.4, aqueous buffer, thermodynamic from solid, Equilibrium solubility S stir, pH 6.4, 10,000 rpm, 20 min): 39.1 ± 1.34 µg/mL | solubility thermodynamic ([1]; 25 °C, pH 10, aqueous buffer, thermodynamic from solid, Equilibrium solubility S sed, pH 10.0, 5000 rpm, 10 min): 14.3 ± 0.17 µg/mL | solubility thermodynamic ([1]; 25 °C, pH 10, aqueous buffer, thermodynamic from solid, Equilibrium solubility S sed, pH 10.0, 10,000 rpm, 5 min): 16.3 ± 0.57 µg/mL | solubility thermodynamic ([1]; 25 °C, pH 10, aqueous buffer, thermodynamic from solid, Equilibrium solubility S sed, pH 10.0, 10,000 rpm, 10 min): 17.5 ± 0.18 µg/mL | solubility thermodynamic ([1]; 25 °C, pH 10, aqueous buffer, thermodynamic from solid, Equilibrium solubility S sed, pH 10.0, 10,000 rpm, 20 min): 18.7 ± 2.41 µg/mL | solubility thermodynamic at 24 h ([1]; 25 °C, pH 10, aqueous buffer, thermodynamic from solid, Equilibrium solubility S stir, pH 10.0, 5000 rpm, 5 min): 18.4 ± 0.28 µg/mL | solubility thermodynamic at 24 h ([1]; 25 °C, pH 10, aqueous buffer, thermodynamic from solid, Equilibrium solubility S stir, pH 10.0, 10,000 rpm, 10 min): 18.2 ± 1.12 µg/mL | solubility thermodynamic at 24 h ([1]; 25 °C, pH 10, aqueous buffer, thermodynamic from solid, Equilibrium solubility S stir, pH 10.0, 10,000 rpm, 20 min): 28.7 ± 0.7 µg/mL | solubility thermodynamic ([1]; pH 10, Equilibrium solubility S sed, pH 10.0, 5000 rpm, 5 min): 17 ± 0.86 µg/mL | solubility thermodynamic ([1]; pH 10, Equilibrium solubility S sed, pH 10.0, 5000 rpm, 20 min): 14.4 ± 0.38 µg/mL | solubility thermodynamic at 24 h ([1]; pH 10, Equilibrium solubility S stir, pH 10.0, 5000 rpm, 10 min): 13.3 ± 0.2 µg/mL | solubility thermodynamic at 24 h ([1]; pH 10, Equilibrium solubility S stir, pH 10.0, 5000 rpm, 20 min): 16.9 ± 0.79 µg/mL | solubility thermodynamic at 24 h ([1]; pH 10, Equilibrium solubility S stir, pH 10.0, 10,000 rpm, 5 min): 17.8 ± 0.5 µg/mL | Centrifugation: Closest to Reference (100%) ([1]; pH 3.0): 100% | Centrifugation: Result Range ([1]; pH 3.0): 91–102% | Centrifugation: Closest to Reference (100%) ([1]; pH 6.4): 101% | Centrifugation: Result Range ([1]; pH 6.4): 101–162% | Centrifugation: Closest to Reference (100%) ([1]; pH 10.0): 100% | Centrifugation: Result Range ([1]; pH 10.0): 78–170% | Solubility compared to the other samples ([1]; pH 10.0, higher centrifugation speed, 20 min of centrifugation): nearly doubled | Fraction ionized [2]: 50% | solubility ([3]; 25 °C, pH 3, aqueous buffer, thermodynamic from solid, Solubility (reference), pH 3.0, 6 h stirring, 18 h sedimentation): 40400 µg/mL | solubility ([3]; 25 °C, pH 6.4, aqueous buffer, thermodynamic from solid, Solubility (reference), pH 6.4, 6 h stirring, 18 h sedimentation): 24.2 ± 1.1 µg/mL | solubility ([3]; pH 10, Solubility (reference), pH 10.0, 6 h stirring, 18 h sedimentation, 25 °C): ~17 µg/mL | Solubility at pH 3.0 relative to pH 10.0 ([3]; fully ionized vs neutral form): around 2350 times | Solubility (reference) ([3]; pH 10.0, 6 h stirring, 18 h sedimentation, 25 °C): 16.9 ± 1.7 µg/mL | Filtration: Result Range ([4]; pH 3.0): 85–95% | Filtration: Closest to Reference (100%) ([4]; pH 3.0): 95% | Filtration: Result Range ([4]; pH 6.4): 42–106% | Filtration: Closest to Reference (100%) ([4]; pH 6.4): 95% | Filtration: Result Range ([4]; pH 10.0): 62–95% | Filtration: Closest to Reference (100%) ([4]; pH 10.0): 95%
